Measurements taken from patent publication US5413915A (priority 1991, dated 1995).

Columns and labels:
[1] = system: rat liver microsomes; test: Detection of benzo(a)pyrene on bilayer spot (Example 3); assay type: biochemical; settings: 0.05 mL of 0.5 mg/mL solution on spot
Method: Two spots were prepared by manual streaking on a glass plate. The bottom layer of each spot consisted of 0.15 mL of a 4 mg/mL porcine 300 Bloom gelatin solution containing 1.2 mg/mL pararosaniline (PRA) reduced with solid sodium metabisulfite, spread over an area of 1100-1500 mm^2. After drying in air for two hours, the second layer, containing the following materials, was deposited. 0.05 mL of fresh rat liver microsomes containing approximately 62 mg/mL protein was added to 0.30 mL of a sodium phosphate buffer solution (pH=7.4) containing 4 mg/mL porcine 300 Bloom gelatin, and admixed with 0.02 mL of a solution containing 3 mM MgCl2, 50 mM tris(hydroxymethyl-)aminomethane buffer (pH=7.4) and 15 mM KCl. To this solution was added 10.5 mg solid reduced nicotinamide adenine dinucleotide phosphate (NADPH). 0.25 mL of this material was deposited over an area of 1300-1700 mm^2, completely covering the bottom layer, and was air dried for two hours. […] Within less than five minutes, violet color began to appear, and was well developed within twenty minutes.

[2] = in vivo; cited from earlier work
[3] = system: rat liver microsomes; test: Colorimetric reactions of constituents in bi-layer film (Example 1); assay type: biochemical
Method: In order to establish the color development behavior of various constituents employed in the invention alone and in several combinations, including two selected test chemicals, seven separate bi-layer film spots were prepared using an otherwise similar gelatin binder medium. The bottom layer of these spots contained reduced pararosaniline (PRA) in all instances except sample 7 wherein the oxidized PRA was substituted to illustrate the coloration of that constituent. An ascorbate salt was selected as typical of a benign test chemical, while benzo(a)pyrene was selected as a representative known carcinogen. The color behavior of the various samples was observed and identified in the following Table 3 together with the compositions of the samples tested.

[4] = system: rat liver microsomes; assay type: biochemical; parameters: key: Positive: the development of coloration denoted a positive response; Negative: the absence of such coloration denoted a negative response
[5] = in vivo; cited from earlier work; remark: listed apart in the source
[6] = system: microsomes; test: Activity of microsome-containing layers after four day time lapse (Example 4); assay type: biochemical
Method: At least five spots were prepared on a glass plate according to the procedure in Example 2 above, and dried in air. The spots were translucent but generally colorless during the first day. […] On the third day, two of the remaining spots were "recharged" by a new layer containing fresh NADPH in gelatin. After drying, both spots were essentially colorless. […] Thus, the oxidative activity of microsomes dispersed in gelatin layers persists strongly for at least three days.

[7] = system: rat liver microsomes; assay type: biochemical; parameters: unit not given here
[8] = system: rat liver microsomes; test: Color development in detection elements with different leuco dyes (Table 2); assay type: biochemical; settings: applied dose 10 μmol (formaldehyde 1 μmol); unexposed control also Black
Method: Solutions containing 0.5 mM of the respective dyes in 0.1 M TRIS buffer, pH=7.4 (except for nitro blue tetrazolium, 5.0 mM in 50% ethanolic TRIS, pH=7.4) were bleached with a few crystals of sodium sulfite or sodium dithionite, then plied in 0.02 mL aliquots as test spots on a clear sheet of transparency film. Spontaneous color development in air was noted (Table 2). Subsequently, a suspension of rat liver microsomes containing 1 mM NADPH and 1 mg/mL gelatin in 0.1 M TRIS-MOPS buffer (pH=7.7) was plied in 0.05 mL aliquots over the dried leuco-dye test spots. After drying, color development condition was noted, and the test spots saved for exposure tests to chemical substances (Table 2). Exposures were carried out by layering 0.01 mL of 0.1-1.0 M solutions of test chemical substances onto the test spots, and changes in color noted over time.

[9] = system: cytochrome P450IA1
[10] = system: rat liver microsomes; test: Color development in detection elements with different leuco dyes (Table 2); assay type: biochemical
[11] = cited from earlier work
[12] = system: Salmonella typhimurium; settings: cited from earlier work
[13] = system: microsomal protein; test: In vitro microsomal activation of hydrazine: leuco dye oxidation (Example 9); assay type: biochemical; settings: 0.5 mM hydrazine hydrate
Method: Test of leuco pararosaniline color formation and NADPH redox states, as a function of time after hydrazine addition, was conducted in vitro, and UV-visible absorbance changes monitored. All systems were aerobic (at least 0.2 mM O2). 0.03 mM Pararosaniline was reduced by addition of 0.1 mM sodium sulfite in 0.1 M 10 tris(hydroxymethyl-)aminomethane buffer (pH=7.5), and 0.3 mM NADPH with approximately 0.5 mg/mL microsomal protein (curves indicated with "+m"). At time=0, hydrazine hydrate (pH=7.5) was added to a final concentration of 0.5 mM. […] Approximately 60% of the leuco dye was oxidized (0.02 mM) during the reaction, and roughly twice that amount of […].

[14] = Oxidation-reduction potentials and redox mediation of dyes and reagents; assay type: physicochemical
Excerpt: Diphenylmethane and triphenylmethane dyes of the present invention have midpoint oxidation-reduction ("redox") potentials ("Em7 ") apparently more negative than the Em7 value for NADPH or cytochrome P450 isozymes. […] Specific examples include pararosaniline (E1/2 =-0.75 V) and malachite green (E1/2 =-0.55 V) (W. Kemula and A. Axt (1969) op cit; Also H. O. Willard, L. L. Merritt, and J. A. Dean (1965) Instrumental Methods of Analysis, 4th Ed., pp. 682-685 and 760-763, for a comparison of E1/2 versus Em7. These potentials are too negative for direct measurement in water, as Em7 =-0.42 V for water breakdown to hydrogen.), both of which respond with color development upon microsomal metabolic activation.
Methylene blue is a rapidly mediating redox indicator, and as such is conventionally used for standardization of electrodes and electrochemical systems used in redox potentiometry. Systems containing ascorbate were therefore tightly clamped at a redox potential of +10 to +20 mV, regardless of any interfering influences such as oxygen. […] Spectrum "mb" is that of pure methylene blue in its oxidized state. Curve "oxid" is the spectrum of a mixed solution of methylene blue as in curve "mb" plus the fully oxidized pararosaniline. […]

**Q.** For `c1ccc2c(c1)cc1ccc3cccc4ccc2c1c34` [Benzo(a)pyrene], which “Time until violet color began to appear” value [1] is on record?
**A.** less than five

**Q.** And the “Time until violet color well developed” value [1]?
**A.** twenty

**Q.** And the “Teratogen Activity” value [2]?
**A.** +

**Q.** What about the “COLOR REACTION” value ([3]; no microsomes, no NADPH, bottom PRA-reduced (samples 5, 6)) of the same molecule?
**A.** No

**Q.** What about the “COLOR REACTION” value ([3]; top layer with rat liver microsomes and NADPH, bottom PRA-reduced (sample 4)) of the same molecule?
**A.** Yes

**Q.** And the “Invention Response” value [4]?
**A.** Positive

**Q.** What about the “Carcinogenic Status” value [5] of the same molecule?
**A.** Positive

**Q.** And the “Tumorigen Activity” value [5]?
**A.** +

**Q.** And the “Color developed on spot” value ([6]; fourth day, NADPH-recharged spot)?
**A.** strong violet color

**Q.** What about the “Color developed on spot” value ([6]; fourth day, not recharged) of the same molecule?
**A.** strong violet color

**Q.** What about the “Color developed on spot” value ([6]; second day, not recharged) of the same molecule?
**A.** strong violet color

**Q.** What about the “Color developed on spot” value ([6]; third day, recharged with fresh NADPH) of the same molecule?
**A.** deep purple color

**Q.** What about the “Detector Response, threshold dose” value [7] of the same molecule?
**A.** 0.01

**Q.** Which results are given for `NN` [Hydrazine]?
**A.** New Color Development, NBTZ [8]: Black; Gain of sensitivity, 50%:50% BaP-induced and uninduced microsomes versus uninduced [9]: approximately 10 fold; Loss of sensitivity, BNF-induced versus uninduced microsomes [9]: 20-50 fold; Teratogen Activity [2]: +; Color of detection elements with leuco methylene blue in combination with pararosaniline ([10]; exposure to hydrazine): magenta color; Color of detection elements using leuco malachite green ([10]; exposure to hydrazine solutions, separate tests): visually detectable green color; Em7 ([11]; midpoint redox potential): -0.73 V; Mutagenicity [12]: +; Tumorigen Activity [5]: +; Leuco dye oxidized during the reaction [13]: 0.02 mM; Time to asymptote of leuco-dye oxidation and NADPH reduction [13]: 2.0 to 2.5 h; Leuco dye oxidized during the reaction ([13]; 0.03 mM PRA, 0.3 mM NADPH, microsomes): Approximately 60%; Detector Response, threshold dose [7]: 0.1-20

**Q.** Which E1/2 ([11]; literature (Kemula and Axt)) does the source give for `N=C1C=CC(=C(c2ccc(N)cc2)c2ccc(N)cc2)C=C1` [pararosaniline] here?
**A.** -0.75 V

**Q.** What about the “standard oxidation-reduction potential (Em7)” value ([14]; aqueous media, from FIG. 1 data) of the same molecule?
**A.** < -0.1 V

**Q.** And the “Time to equilibrate in a redox voltage-clamped system” value ([14]; ascorbate / methylene blue clamped system)?
**A.** two
